Test system: ERK1/ERK2
Assay: Measurement of Erk occupancy with biotinylated covalent probe I-299 (HT-29)
Format: cell-based
Details: HT-29 cells
Description: Measurement of Erk Occupancy with Biotinylated Covalent Probe
This experiment measured occupancy of the ERK1/ERK2 target by compounds according to the invention. This experiment was conducted using the Mesoscale Discovery test kit (Cat. # N45107B). One day before the assay, cells were split and added at 50,000 cells per well to a flat-bottom 96 well plate in 200 μl of growth medium. The next day, the medium was discarded, 100 μl medium containing test compound was added, and the plate was incubated at 37° C. for 120 minutes. The plate was rinsed once with PBS, and 50 μl lysis buffer with test compound was added. The plate was incubated at 4° C. for 30 min, and 30 μl of lysate was transferred to a plate to capture total and phosphor-Erk. Biotinylated probe 1-299 was diluted in lysis buffer and added to each well to a final concentration of 0.2 μM. The plate was incubated for 2 hr under constant shaking at room temperature. The plate was washed 3 times with MSD wash buffer. To detect the biotinylated probe bonding, tagged streptavidin was added (Mesoscale Discovery, Cat. # R32AD-1) at 1 μg/ml, 25 μl/well, followed by a 60 min incubation under shaking. The plate was washed 3 times, 150 μl MSD Read Buffer (Mesoscale Discovery, Cat. R61TX) was added and the plate was read in a plate reader manufactured by MSD. Percent occupancy by test compound at Erk was calculated by comparing the chemiluminescence readings from treated cells as compared to the chemiluminescence readings in untreated controls (which are defined as 100% probe bonding or 0% test compound occupancy). The amount of covalent probe signal divided by the amount of ERK signal for samples with no test compound treatment represents the maximum probe signal (MPS). In samples treated with test compound prior to covalent probe, the ratio of probe signal to ERK signal (the test probe signal, TPS) was reduced by the degree of target occupancy by the test compound which blocks covalent probe binding. The difference between the MPS and the TPS, divided by the MPS gave the target occupancy by the test compound. This ratio was then expressed as a percent occupancy. Results from this assay are provided in Table A below under the column “Occupancy EC50 (nM) HT-29.”

EC50: < 0.1 µM
SMILES: C=CC(=O)Nc1ccccc1Nc1nc(Nc2cc(C(N)=O)ccc2C)ncc1C(F)(F)F [Compound I-68, 3-(4-(2-Acrylamidophenylamino)-5-(trifluoromethyl)pyrimidin-2-ylamino)-4-methylbenzamide]

From US9561228B2 (Celgene Avilomics Research, Inc., priority 2013, dated 2017)
